{
  "source": "patent US5656603A",
  "about": "(Loyola University of Chicago, priority 1995, dated 1997)",
  "biological_target": "T1, angiotensin converting enzyme (EC 3.4.15.1) (Bos taurus, UniProt P12820)",
  "T1 construct": "Unless otherwise indicated, the source of each enzyme activity was a detergent extract of bovine lung; from tissue; host or cells: detergent extract of bovine lung",
  "T1 sequence (P12820 29-1306)": "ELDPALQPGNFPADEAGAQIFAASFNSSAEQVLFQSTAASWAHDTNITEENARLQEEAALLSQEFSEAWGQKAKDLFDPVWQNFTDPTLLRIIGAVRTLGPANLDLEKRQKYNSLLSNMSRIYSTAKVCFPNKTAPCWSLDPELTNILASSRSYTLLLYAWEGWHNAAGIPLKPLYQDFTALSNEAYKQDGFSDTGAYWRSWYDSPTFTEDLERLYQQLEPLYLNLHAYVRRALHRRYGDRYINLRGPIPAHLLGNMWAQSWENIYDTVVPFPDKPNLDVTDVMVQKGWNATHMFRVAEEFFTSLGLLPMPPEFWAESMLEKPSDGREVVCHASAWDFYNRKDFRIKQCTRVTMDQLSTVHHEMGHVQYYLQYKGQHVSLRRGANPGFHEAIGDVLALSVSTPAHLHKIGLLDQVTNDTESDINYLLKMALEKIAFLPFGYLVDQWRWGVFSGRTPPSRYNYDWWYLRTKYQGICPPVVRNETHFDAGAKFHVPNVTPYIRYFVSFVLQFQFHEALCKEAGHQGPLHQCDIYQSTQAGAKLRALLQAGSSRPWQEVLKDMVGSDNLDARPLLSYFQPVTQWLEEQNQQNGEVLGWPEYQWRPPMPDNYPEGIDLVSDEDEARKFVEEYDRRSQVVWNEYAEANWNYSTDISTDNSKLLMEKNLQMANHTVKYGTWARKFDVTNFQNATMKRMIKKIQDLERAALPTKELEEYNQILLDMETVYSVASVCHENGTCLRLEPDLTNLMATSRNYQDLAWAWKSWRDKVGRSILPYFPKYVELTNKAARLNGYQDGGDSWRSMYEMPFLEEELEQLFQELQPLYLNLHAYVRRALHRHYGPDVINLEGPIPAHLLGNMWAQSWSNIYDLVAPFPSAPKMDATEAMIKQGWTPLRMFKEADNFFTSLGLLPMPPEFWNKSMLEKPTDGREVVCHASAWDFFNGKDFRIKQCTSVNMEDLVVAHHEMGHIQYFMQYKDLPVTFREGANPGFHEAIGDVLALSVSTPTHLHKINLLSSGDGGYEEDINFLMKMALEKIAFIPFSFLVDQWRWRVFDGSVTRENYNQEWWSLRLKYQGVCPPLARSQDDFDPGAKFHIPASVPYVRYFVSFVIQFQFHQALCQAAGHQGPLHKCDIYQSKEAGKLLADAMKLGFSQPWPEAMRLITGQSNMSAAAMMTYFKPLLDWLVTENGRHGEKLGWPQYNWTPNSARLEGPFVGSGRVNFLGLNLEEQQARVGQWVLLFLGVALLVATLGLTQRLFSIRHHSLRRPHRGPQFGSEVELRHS",
  "experiment": "Specificity of apstatin: angiotensin converting enzyme",
  "format": "biochemical",
  "settings": "detergent extract of bovine lung; Hip-His-Leu, pH 6.5, HPLC-1",
  "description": "Specificity of Apstatin--Apstatin was assayed for its ability to inhibit several other peptidases. […] Unless otherwise indicated, the source of each enzyme activity was a detergent extract of bovine lung prepared as described in (12-13). Activities were determined by a modification of the fluorescent assay described above (indicated by \"FLUO\") or by HPLC separation and quantitation of reaction products using the method described in (12) (method \"HPLC-1\") or the method described below (method \"HPLC-2\"). […]",
  "data": [
    {"smiles": "C[C@H](NC(=O)[C@@H]1CCCN1C(=O)[C@@H]1CCCN1C(=O)[C@@H](O)[C@H](N)Cc1ccccc1)C(N)=O", "note": "[apstatin, N-[(2S, 3R)-3-amino-2-hydroxy-4-phenylbutanoyl]-L-prolyl-L-prolyl-Lalaninamide]", "values": [
      {"measurement": "IC50", "result": "> 800", "unit": "µM"}
    ]}
  ]
}
